In patent publication US20250195553A1, “Use of Genipin-1-B-D-Gentiobioside in Preparation of Drug” (Guizhou Bailing Group Pharmaceutical Co., Ltd., priority 2023, published 2025):
Where two headings read alike, the source gives them in different places.

Legend:
[1] = test system: Lipopolysaccharide (LPS)-induced pneumonia model in mice; assay: LPS-induced pneumonia model in mice, intravenous injection: lung index; assay type: in vivo, ICR mice; conditions: for Lung Index: 6 h after LPS
Experimental: Sixty healthy mice, weighing 18˜20 g, half male and half female, were selected and randomly grouped after stratification by weight; they were divided into a normal control group, a model control group, three Genipin-1-β-D-gentiobioside dose groups (150 mg/kg/d, 75 mg/kg/d, 37.5 mg/kg/d), and a positive control drug Sivelestat Sodium 50 mg/kg/d group, with 10 mice in each group, half male and half female. After grouping, each treatment group was administered intravenously at 20 ml/kg once daily for 2 consecutive days, while the normal control group and model control group were injected with physiological saline. One hour after the second dose, except for the normal control group, the other groups were lightly anesthetized with isoflurane, and a 20 mg/ml LPS physiological saline solution was administered intranasally to the mice at 0.05 ml/mouse to induce the pneumonia model. Six hours after infection, the animals were sacrificed, dissected, and their lungs were removed and weighed to calculate the lung index (lung index=lung weight/body weight×100%).

[2] = Median particle size of nebulized test drug solutions; assay type: physicochemical
Experimental: 1. Genipin-1-β-D gentiobioside 75 mg/ml group, median particle size is 2.02±0.06 μm; Genipin-1-β-D gentiobioside 37.5 mg/ml group, median particle size is 2.12±0.08 μm; Genipin-1-β-D gentiobioside […] group, median particle size is 2.01±0.09 μm; and Genipin-1-β-D gentiobioside 9.375 mg/ml group, median particle size is 2.07±0.06 μm. The nebulization time for each group is 25 minutes.

[3] = test system: SARS-CoV-2; assay: Protective effect against death in SARS-CoV-2 infected mice; assay type: in vivo, hACE2 transgenic C57BL/6 mice; conditions: for Number of Survivors / Number of Deaths: 8 mice; for Number of Deaths: 5-day
Experimental: 1.1 Test Drug: Genipin-1-β-D-gentiobioside. […] Dosage for mice: 37.5 mg/kg and 75 mg/kg, administered by intraperitoneal injection once daily for 5 consecutive days.
1.2 Experimental Animals: human angiotensin-converting enzyme 2 (hACE2) transgenic C57BL/6 mice, aged 6˜7 weeks, weighing 18˜25 g, a total of 32 mice provided by GemPharmatech Co., Ltd., with a license number of SCXK (Su) 2018-008.
(§1) 2.1 Grouping and Drug Administration: hACE2 transgenic C57BL/6 mice were divided into four groups, namely the blank control group, the SARS-CoV-2 infection group, the Genipin-1-β-D-gentiobioside (37.5 mg/kg) treatment group, and the Genipin-1-β-D-gentiobioside (75 mg/kg) treatment group, with 8 mice in each group. Except for the normal group, which received intranasal administration of Phosphate Buffered Saline (PBS), the other groups were infected with 10^4 Plaque Forming Unit (PFU) of Severe Acute Respiratory Syndrome Coronavirus 2 (SARS-CoV-2) virus via intranasal instillation. Two hours' post-infection, the treatment groups received intraperitoneal injections of the drug once daily for 5 consecutive days. Mouse deaths were recorded daily after infection, and the 5-day mortality rate was calculated. At the end of the experiment, the lung tissues were collected and homogenized for virus titer detection.

[4] = test system: Human Respiratory Syncytial Virus (RSV); assay: Mouse pneumonia model infected with RSV, nebulization: lung index; assay type: in vivo
Experimental: […] BALB/c mice, weighing 10±1 g, were randomly divided into four groups: a normal control group, a model control group, a high-dose Genipin-1-β-D-gentiobioside group (75 mg/ml), and a low-dose Genipin-1-β-D-gentiobioside group (37.5 mg/ml). Each group consisted of 10 mice, with an equal number of males and females. Except for the normal control group, all mice were lightly anesthetized with isoflurane and infected with respiratory syncytial virus (RSV) via intranasal administration, with each mouse receiving 35 μl of the virus. On the day of infection, the treatment groups began inhalation administration. Each group received nebulization for 25 minutes once daily for four consecutive days. The normal control group and the model control group received nebulized saline under the same conditions. On the fifth day, after weighing, the mice were sacrificed by cervical dislocation, and their lung tissues were dissected, weighed, and used to calculate the lung index and lung index inhibition rate. The lung tissues were also retained for virus load, pathological examination, and inflammatory factor detection. The results were statistically analyzed using the t-test for intergroup comparisons.

[5] = test system: SARS-CoV-2; assay: Virus titer in lung tissue homogenates of SARS-CoV-2 infected mice (TCID50 on VERO E6 cells); assay type: in vivo, hACE2 transgenic C57BL/6 mice
Experimental: as §1, with “detection. […]” for “detection.”
The well-grown VERO E6 cells were inoculated into a 96-well plate at a density of 1×10^4 cells per well and cultured for another 24 hours. […] The number of wells showing CPE at each concentration gradient was recorded, and the Tissue Culture Infectious Dose 50% (TCID50) value for VERO E6 cells was calculated.

[6] = test system: Human Coronavirus 229E (HCoV-229E); assay type: in vivo
[7] = 37.5 mg/kg i.v. once daily 2 days
[8] = 75 mg/kg i.v. once daily 2 days
[9] = 150 mg/kg i.v. once daily 2 days
[10] = 37.5 mg/kg intraperitoneal once daily 5 days
[11] = 75 mg/kg intraperitoneal once daily 5 days
[12] = 37.5 mg/ml nebulization 25 min once daily 4 days
[13] = 75 mg/ml nebulization 25 min once daily 4 days

COC(=O)C1=CO[C@@H](O[C@@H]2O[C@H](CO[C@@H]3O[C@H](CO)[C@@H](O)[C@H](O)[C@H]3O)[C@@H](O)[C@H](O)[C@H]2O)[C@@H]2C(CO)=CC[C@H]12 [Genipin-1-β-D-gentiobioside]
Inhibition Rate (lung index) [1, 7]: 48.85 | Lung Index [1, 7]: 0.91 ± 0.09 g/100 g body weight | Inhibition Rate (lung index) [1, 8]: 94.65 | Lung Index [1, 8]: 0.85 ± 0.14 g/100 g body weight | Inhibition Rate (lung index) [1, 9]: 77.10 | Lung Index [1, 9]: 0.87 ± 0.01 g/100 g body weight | Median particle size ([2]; 9.375 mg/ml group): 2.07±0.06 μm | Median particle size ([2]; 18.755 mg/ml group): 2.01±0.09 μm | Median particle size ([2]; 37.5 mg/ml group): 2.12±0.08 μm | Median particle size ([2]; 75 mg/ml group): 2.02±0.06 μm | Death Rate [3, 10]: 37.5% | Survival Rate [3, 10]: 62.5% | Number of Survivors [3, 10]: 5 | Number of Deaths [3, 10]: 3 | Death Rate [3, 11]: 25% | Survival Rate [3, 11]: 75% | Number of Survivors [3, 11]: 6 | Number of Deaths [3, 11]: 2 | Inhibition Rate (lung index) [4, 12]: 68.79% | Lung Index [4, 12]: 0.70 ± 0.09 Lung weight/100 g body weight | Inhibition Rate (lung index) [4, 13]: 88.35% | Lung Index [4, 13]: 0.67 ± 014 Lung weight/100 g body weight | Virus titer in the lung tissue vs model control group ([5]; 37.5 mg/kg, P<0.05): significantly reduced the virus titer | Virus titer in the lung tissue vs model control group ([5]; 75 mg/kg, P<0.01): significantly reduced the virus titer | Inhibition Rate (lung index) ([6]; 37.5 mg/kg/d i.v. 4 days): 75.12% | Lung Index ([6]; 37.5 mg/kg/d i.v. 4 days): 0.95 ± 0.11 g lung weight × 100 g/body weight | Inhibition Rate (lung index) ([6]; 75 mg/kg/d i.v. 4 days): 71.04% | Lung Index ([6]; 75 mg/kg/d i.v. 4 days): 0.96 ± 0.12 g lung weight × 100 g/body weight | Inhibition Rate (lung index) ([6]; 150 mg/kg/d i.v. 4 days): 99.06% | Lung Index ([6]; 150 mg/kg/d i.v. 4 days): 0.89 ± 0.06 g lung weight × 100 g/body weight
